Results as given in patent US7825256B2, “Inducible nitric oxide synthase dimerization inhibitors” (Kalypsys, Inc., priority 2004, dated 2010).

target: T1, hiNOS (Homo sapiens, UniProt P35228); test: DAN assay, hiNOS expressed in transiently transfected HEK293 cells; format: cell-based; settings: HEK293 cells transiently transfected with hiNOS
T1 construct: expressed in transfected cells; host or cells: HEK293
Text: The source of nitric oxide synthase (NOS) enzyme can be generated in several ways including induction of endogenous iNOS using cytokines and/or lipopolysaccharide (LPS) in various cell types known in the art. Alternatively, the gene encoding the enzyme can be cloned and the enzyme can be generated in cells via heterologous expression from a transient or stable expression plasmid with suitable features for protein expression as are known in the art. Enzymatic activity (nitric oxide production) is calcium independent for iNOS, while the constitutive NOS isoforms, nNOS and eNOS, become active with the addition of various cofactors added to cellular media or extract as are well known in the art. Enzymes specified in Table 1 were expressed in HEK293 cells transiently transfected with the indicated NOS isoform.
A major metabolic pathway for nitric oxide is to nitrate and nitrite, which are stable metabolites within tissue culture, tissue, plasma, and urine (S Moncada, A Higgs, N Eng J Med 329, 2002 (1993)).
The level of nitrate or nitrite in the specimen can be quantified by any method known in the art which provides adequate sensitivity and reproducibility. A variety of protocols have also been described for detecting and quantifying nitrite and nitrate levels in biological fluids by ion chromatography (e.g., S A Everett et al., J. Chromatogr. 706, 437 (1995); J M Monaghan et al., J. Chromatogr. 770, 143 (1997)), high-performance liquid chromatography (e.g., M Kelm et al., Cardiovasc. Res. 41, 765 (1999)), and capillary electrophoresis (M A Friedberg et al., J. Chromatogr. 781, 491 (1997)). For example, 2,3-diaminonaphthalene reacts with the nitrosonium cation that forms spontaneously from NO to form the fluorescent product […]. Using 2,3-diaminonaphthalene (“DAN”), researchers have developed a rapid, quantitative fluorometric assay that can detect from 10 nM to 10 μM nitrite and is compatible with a multi-well microplate format. […] DAN reacts with nitrite ion and gives fluorescent […] (M C Carré et al., Analysis 27, 835-838 (1999)). Table 1 provides the test results of various compounds of the subject invention using the DAN assay.
A specimen can be processed prior to determination of nitrate or nitrite as required by the quantification method, or in order to improve the results, or for the convenience of the investigator. For example, processing can involve centrifuging, filtering, or homogenizing the sample. If the sample is whole blood, the blood can be centrifuged to remove cells and the nitrate or nitrite assay performed on the plasma or serum fraction. If the sample is tissue, the tissue can be dispersed or homogenized by any method known in the art prior to determination of nitrate or nitrite. It may be preferable to remove cells and other debris by centrifugation or another method and to determine the nitrate or nitrite level using only the fluid portion of the sample, or the extracellular fluid fraction of the sample. The sample can also be preserved for later determination, for example by freezing of urine or plasma samples. When appropriate, additives may be introduced into the specimen to preserve or improve its characteristics for use in the nitrate or nitrite assay.
The “level” of nitrate, nitrite, or other NO-related product usually refers to the concentration (in moles per liter, micromoles per liter, or other suitable units) of nitrate or nitrite in the specimen, or in the fluid portion of the specimen. However, other units of measure can also be used to express the level of nitrate or nitrite. For example, an absolute amount (in micrograms, milligrams, nanomoles, moles, or other suitable units) can be used, particularly if the amount refers back to a constant amount (e.g., grams, kilograms, milliliters, liters, or other suitable units) of the specimens under consideration. A number of commercially available kits can be used.

SMILES	EC50
CCOC(=O)C1CCC(C(=O)NCCc2ccc3c(c2)OCO3)N1c1nc(-n2ccnc2)ns1 (racemic) [Example 94, 5-(2-Benzo[1,3]dioxol-5-yl-ethylcarbamoyl)-1-(3-imidazol-1-yl-[1,2,4]thiadiazol-5-yl)-pyrrolidine-2-carboxylic acid ethyl ester]	< 1000 nM
Cc1cc(C(C)N2CCC[C@@H]2C(=O)NCc2ccc3c(c2)OCO3)nc(-n2ccnc2)n1 (mixture of isomers) [Example 121, 1-[1-(2-Imidazol-1-yl-6-methyl-pyrimidin-4-yl)-ethyl]-pyrrolidine-2-carboxylic acid (benzo[1,3]dioxol-5-ylmethyl)-amide]	< 1000 nM
Cc1cc(C(C)NCCN(C)Cc2ccc3c(c2)OCO3)nc(-n2ccnc2)n1 (single isomer, unassigned) [Example 130, N-Benzo[1,3]dioxol-5-ylmethyl-N′-[1-(2-imidazol-1-yl-6-methyl-pyrimidin-4-yl)-ethyl]-N-methyl-ethane-1,2-diamine]	< 1000 nM
Cc1cc(C(C)NCCN(C)Cc2ccc3c(c2)OCO3)nc(-n2ccnc2)n1 (single isomer, unassigned) [Example 131, N-Benzo[1,3]dioxol-5-ylmethyl-N-[1-(2-imidazol-1-yl-6-methyl-pyrimidin-4-yl)-ethyl]-N-methyl-ethane-1,2-diamine]	< 1000 nM
Cc1cc(C2CCCN2CCNCc2ccc3c(c2)OCO3)nc(-n2ccnc2)n1 (single isomer, unassigned) [Example 132, Benzo[1,3]dioxol-5-ylmethyl-{2-[2-(2-imidazol-1-yl-6-methyl-pyrimidin-4-yl)-pyrrolidin-1-yl]-ethyl}-amine]	< 1000 nM
CN(CCCN)c1nc(-n2ccnc2)ns1 [Example 6, N-1-(3-Imidazol-1-yl-[1,2,4]thiadiazol-5-yl)-N-1-methyl-propane-1,3-diamine]	> 50000 nM
CN(CCCNCc1ccc(Cl)cc1)c1nc(-n2ccnc2)ns1 [Example 7, N′-(4-Chloro-benzyl)-N-(3-imidazol-1-yl-[1,2,4]thiadiazol-5-yl)-N-methyl-propane-1,3-diamine]	< 50000 nM
COc1ccc(CNCCCN(C)c2nc(-n3ccnc3)ns2)cc1 [Example 8, N-(3-Imidazol-1-yl-[1,2,4]thiadiazol-5-yl)-N′-(4-methoxy-benzyl)-N-methyl-propane-1,3-diamine]	< 1000 nM
CN(CCCNCc1ccc(F)c(F)c1)c1nc(-n2ccnc2)ns1 [Example 9, N′-(3,4-Difluro-benzyl)-N-(3-imidazol-1-yl-[1,2,4]thiadiazol-5-yl)-N-methyl-propane-1,3-diamine]	> 50000 nM
CN(CCCNCc1c(Cl)cccc1Cl)c1nc(-n2ccnc2)ns1 [Example 10, N′-(2,6-Dichloro-benzyl)-N-(3-imidazol-1-yl-[1,2,4]thiadiazol-5-yl)-N-methyl-propane-1,3-diamine]	> 50000 nM
CN(CCCNCc1ccc(C(F)(F)F)cc1)c1nc(-n2ccnc2)ns1 [Example 11, N-(3-Imidazol-1-yl-[1,2,4]thiadiazol-5-yl)-N-methyl-N′-(4-trifluoromethyl-benzyl)-propane-1,3-diamine]	> 50000 nM
Cc1cc(CNC(=O)CNCc2ccc3c(c2)OCO3)nc(-n2ccnc2)n1 [Example 14]	< 1000 nM
CN(CCCNCc1ccc2c(c1)OCCO2)c1nc(-n2ccnc2)ns1 [Example 16, N′-(2,3-Dihydro-benzo[1,4]dioxin-6-ylmethyl)-N-(3-imidazol-1-yl-[1,2,4]thiadiazol-5-yl)-N-methyl-propane-1,3-diamine]	< 1000 nM
COc1ccc(CNCCCN(C)c2nc(-n3ccnc3)ns2)c(OC)c1 [Example 17, N′-(2,4-Dimethoxy-benzyl)-N-(3-imidazol-1-yl-[1,2,4]thiadiazol-5-yl)-N-methyl-propane-1,3-diamine]	< 1000 nM
CN(CCCNCc1ccc2[nH]ccc2c1)c1nc(-n2ccnc2)ns1 [Example 18, N-(3-Imidazol-1-yl-[1,2,4]thiadiazol-5-yl)-N′-(1H-indol-5-ylmethyl)-N-methyl-propane-1,3-diamine]	> 50000 nM
CN(CCCNCc1cc2ccccc2n1C)c1nc(-n2ccnc2)ns1 [Example 19, N-(3-Imidazol-1-yl-[1,2,4]thiadiazol-5-yl)-N-methyl-N′-(1-methyl-1H-indol-2-ylmethyl)-propane-1,3-diamine]	> 50000 nM
CN(CCCNCc1cccs1)c1nc(-n2ccnc2)ns1 [Example 20, N-(3-Imidazol-1-yl-[1,2,4]thiadiazol-5-yl)-N-methyl-N′-thiophen-2-ylmethyl-propane-1,3-diamine]	> 50000 nM
CN(CCCNCc1ccncc1)c1nc(-n2ccnc2)ns1 [Example 21, N-(3-Imidazol-1-yl-[1,2,4]thiadiazol-5-yl)-N-methyl-N′-pyridin-4-ylmethyl-propane-1,3-diamine]	> 50000 nM
COc1ccc(CNCCCN(C)c2nc(-n3ccnc3)ns2)cc1OC [Example 22, N′-(3,4-Dimethoxy-benzyl)-N-(3-imidazol-1-yl-[1,2,4]thiadiazol-5-yl)-N-methyl-propane-1,3-diamine]	> 50000 nM
C[C@H](Nc1nc(-n2ccnc2)ns1)C(=O)NCCc1ccc2c(c1)OCO2 [Example 23, (S)—N-(2-Benzo[1,3]dioxol-5-yl-ethyl)-2-(3-imidazol-1-yl-[1,2,4]thiadiazol-5-ylamino)-propionamide]	< 1000 nM
CC(C)[C@H](Nc1nc(-n2ccnc2)ns1)C(=O)NCCc1ccc2c(c1)OCO2 [Example 24, (S)—N-(2-Benzo[1,3]dioxol-5-yl-ethyl)-2-(3-imidazol-1-yl-[1,2,4]thiadiazol-5-ylamino)-3-methyl-butyramide]	< 1000 nM
O=C(NCCc1ccc2c(c1)OCO2)[C@@H]1CCCN1c1nc(-n2ccnc2)ns1 [Example 25, (S)-1-(3-Imidazol-1-yl-[1,2,4]thiadiazol-5-yl)-pyrrolidine-2-carboxylic acid (2-benzo[1,3]dioxol-5-yl-ethyl)-amide]	> 50000 nM
O=C(NCCc1ccc2c(c1)OCO2)[C@H]1CCCCN1c1nc(-n2ccnc2)ns1 [Example 26, (R)-1-(3-Imidazol-1-yl-[1,2,4]thiadiazol-5-yl)-piperidine-2-carboxylic acid (2-benzo[1,3]dioxol-5-yl-ethyl)-amide]	< 1000 nM
O=C(NCCc1ccc2c(c1)OCO2)[C@@H]1C[C@@H](O)CN1c1nc(-n2ccnc2)ns1 [Example 27, (2S,4R)-4-Hydroxy-1-(3-imidazol-1-yl-[1,2,4]thiadiazol-5-yl)-pyrrolidine-2-carboxylic acid (2-benzo[1,3]dioxol-5-yl-ethyl)amide]	< 1000 nM
CN(CC(=O)NCCc1ccc2c(c1)OCO2)c1nc(-n2ccnc2)ns1 [Example 30, N-(2-Benzo[1,3]dioxol-5-yl-ethyl)-2-[(3-imidazol-1-yl-[1,2,4]thiadiamol-5-yl)-methyl-amino]-acetamide]	< 1000 nM
CCCN(CCCNCc1ccc2c(c1)OCO2)c1nc(-n2ccnc2)ns1 [Example 31, N′-Benzo[1,3]dioxol-5-ylmethyl-N-(3-imidazol-1-yl-[1,2,4]thiadiazol-5-yl)-N-propyl-propane-1,3-diamine]	< 1000 nM
c1cn(-c2nsc(N(CCCNCc3ccc4c(c3)OCO4)C3CC3)n2)cn1 [Example 32, N′-Benzo[1,3]dioxol-5-ylmethyl-N-cyclopropyl-N-(3-imidazol-1-yl-[1,2,4]thiadiazol-5-yl)-propane-1,3-diamine]	< 1000 nM
c1cn(-c2nsc(N3CCN(Cc4ccc5c(c4)OCO5)CC3)n2)cn1 [Example 33, 1-Benzo[1,3]dioxol-5-ylmethyl-4-(3-imidazol-1-yl-[1,2,4]thiadiazo-5-yl)-piperazine]	< 50000 nM
CN(CCCNS(=O)(=O)c1ccc(OC(F)(F)F)cc1)c1nc(-n2ccnc2)ns1 [Example 34, N-{3-[(3-Imidazol-1-yl-[1,2,4]thiadiazol-5-yl)-methyl-amino]-propyl}-4-trifluoromethoxy-benzenesulfonamide]	> 50000 nM
